Reference: patent US10765114B2, “4-amino-6-(pyridyl and 2-substitutedphenyl)-picolinates and 6-amino-2-(pyridyl and 2-substitutedphenyl)-pyrimidine-4-carboxylates and their use as herbicides” (Dow AgroSciences LLC, priority 2013, dated 2020)

These compounds were tested on ALOMY (blackgrass) (assay: Post-Emergent Test III (Wheat and Barley)). Conditions: Alopecurus myosuroides, post-emergence, 504 h; 35 g ai/ha, postemergence; read-out: Visual Growth Reduction (%) 21 Days After Application, ALOMY.
Format: in vivo, Alopecurus myosuroides
Description: (§1) Seeds of the desired test plant species were planted in Sun Gro MetroMix® 306 planting mixture, which typically has a pH of 6.0 to 6.8 and an organic matter content of about 30 percent, in plastic pots with a surface area of 103.2 square centimeters (cm^2). When required to ensure good germination and healthy plants, a fungicide treatment and/or other chemical or physical treatment was applied. The plants were grown for 7-36 days in a greenhouse with an approximate 14 h photoperiod which was maintained at about 18° C. during the day and 17° C. during the night. Nutrients and water were added on a regular basis and supplemental lighting was provided with overhead metal halide 1000-Watt lamps as necessary. The plants were employed for testing when they reached the second or third true leaf stage.
(§2) A weighed amount, determined by the highest rate to be tested, of each test compound was placed in a 25 mL glass vial and was dissolved in 4 mL of a 97:3 v/v mixture of acetone and DMSO to obtain concentrated stock solutions. […] The concentrated stock solutions obtained were diluted with 20 mL of an aqueous mixture containing acetone, water, isopropyl alcohol, DMSO, Agri-Dex crop oil concentrate, and X-77 surfactant in a 48:39:10:1.5:1.5:0.02 v/v ratio to obtain spray solutions containing the highest application rates. Additional application rates were obtained by serial dilution of 12 mL of the high rate solution into a solution containing 2 mL of 97:3 v/v mixture of acetone and DMSO and 10 mL of an aqueous mixture containing acetone, water, isopropyl alcohol, DMSO, Agri-Dex crop oil concentrate, and X-77 surfactant in a 48:39:10:1.5:1.5:0.02 v/v ratio to obtain ½×, ¼×, ⅛× and 1/16× rates of the high rate. Compound requirements are based upon a 12 mL application volume at a rate of 187 liters per hectare (L/ha). Formulated compounds were applied to the plant material with an overhead Mandel track sprayer equipped with 8002E nozzles calibrated to deliver 187 L/ha over an application area of 0.503 square meters at a spray height of 18 inches (43 cm) above the average plant canopy height. Control plants were sprayed in the same manner with the solvent blank.
(§3) The treated plants and control plants were placed in a greenhouse as described above and watered by subirrigation to prevent wash-off of the test compounds. After 21 dAYS, the condition of the test plants as compared with that of the untreated plants was determined visually and scored on a scale of 0 to 100 percent where 0 corresponds to no injury and 100 corresponds to complete kill and presented as indicated in Table A.
(§4) By applying the well-accepted probit analysis as described by J. Berkson in Journal of the American Statistical Society, 48, 565 (1953) and by D. Finney in “Probit Analysis” Cambridge University Press (1952), herbicidal injury of a specific compound at various rates can be used to calculate GR10, GR20, GR50, GR80 and GR90 values, which are defined as growth reduction factors that correspond to the effective dose of herbicide required to provide plant growth reduction (GR) of 10 percent, 20 percent, 50 percent, 80 percent and 90 percent, respectively. Probit analysis was applied to data collected from multiple dose rates of individual compounds utilizing the procedures explained in the following examples. The analysis of those dose rates is captured in the following tables.

Row | SMILES | pest or weed control at 35 g/ha [%]
1 | Nc1c(Cl)c(C(=O)O)nc(-c2ccc(C(F)(F)F)nc2)c1Cl [Compound 33] | 60 to 74

Same assay, conditions: Alopecurus myosuroides, post-emergence, 504 h; 70 g ai/ha, postemergence; read-out: Visual Growth Reduction (%) 21 Days After Application, ALOMY

Row | SMILES | pest or weed control at 70 g/ha [%]
2 | Nc1c(Cl)c(C(=O)O)nc(-c2ccc(C(F)(F)F)nc2)c1Cl [Compound 33] | 75 to 84

Same assay, conditions: Alopecurus myosuroides, post-emergence, 504 h; 140 g ai/ha, postemergence; read-out: Visual Growth Reduction (%) 21 Days After Application, ALOMY

Row | SMILES | pest or weed control at 140 g/ha [%]
3 | Nc1c(Cl)c(C(=O)O)nc(-c2ccc(C(F)(F)F)nc2)c1Cl [Compound 33] | 85 to 94

Same assay, conditions: effective dose for growth reduction of 50 percent, probit analysis

Row | SMILES | GR50, ALOMY [g ai/ha]
4 | Nc1c(Cl)c(C(=O)O)nc(-c2ccc(C(F)(F)F)nc2)c1Cl [Compound 33] | 37

Same assay, conditions: effective dose for growth reduction of 80 percent, probit analysis

Row | SMILES | GR80, ALOMY [g ai/ha]
5 | Nc1c(Cl)c(C(=O)O)nc(-c2ccc(C(F)(F)F)nc2)c1Cl [Compound 33] | 72

What follows are compounds tested on TRZSS (assay: Post-Emergent Test III (Wheat and Barley)). Conditions: Triticum aestivum, post-emergence, 504 h; 35 g ai/ha, postemergence; read-out: Visual Growth Reduction (%) 21 Days After Application, TRZSS.
Format: in vivo
Description: as §1, §2, §3, §4

Row | SMILES | pest or weed control at 35 g/ha [%]
6 | Nc1c(Cl)c(C(=O)O)nc(-c2ccc(C(F)(F)F)nc2)c1Cl [Compound 33] | 75 to 84

Same assay, conditions: Triticum aestivum, post-emergence, 504 h; 70 g ai/ha, postemergence; read-out: Visual Growth Reduction (%) 21 Days After Application, TRZSS

Row | SMILES | pest or weed control at 70 g/ha [%]
7 | Nc1c(Cl)c(C(=O)O)nc(-c2ccc(C(F)(F)F)nc2)c1Cl [Compound 33] | 75 to 84

Same assay, conditions: Triticum aestivum, post-emergence, 504 h; 140 g ai/ha, postemergence; read-out: Visual Growth Reduction (%) 21 Days After Application, TRZSS

Row | SMILES | pest or weed control at 140 g/ha [%]
8 | Nc1c(Cl)c(C(=O)O)nc(-c2ccc(C(F)(F)F)nc2)c1Cl [Compound 33] | 85 to 94

Same assay, conditions: effective dose for growth reduction of 20 percent, probit analysis

Row | SMILES | GR20, TRZSS [g ai/ha]
9 | Nc1c(Cl)c(C(=O)O)nc(-c2ccc(C(F)(F)F)nc2)c1Cl [Compound 33] | 1

The compounds below were run on HORSS (assay: Post-Emergent Test III (Wheat and Barley)). Conditions: Hordeum vulgare, post-emergence, 504 h; 35 g ai/ha, postemergence; read-out: Visual Growth Reduction (%) 21 Days After Application, HORSS.
Format: in vivo
Description: as §1, §2, §3, §4

Row | SMILES | pest or weed control at 35 g/ha [%]
10 | Nc1c(Cl)c(C(=O)O)nc(-c2ccc(C(F)(F)F)nc2)c1Cl [Compound 33] | 75 to 84

Same assay, conditions: Hordeum vulgare, post-emergence, 504 h; 70 g ai/ha, postemergence; read-out: Visual Growth Reduction (%) 21 Days After Application, HORSS

Row | SMILES | pest or weed control at 70 g/ha [%]
11 | Nc1c(Cl)c(C(=O)O)nc(-c2ccc(C(F)(F)F)nc2)c1Cl [Compound 33] | 85 to 94

Same assay, conditions: Hordeum vulgare, post-emergence, 504 h; 140 g ai/ha, postemergence; read-out: Visual Growth Reduction (%) 21 Days After Application, HORSS

Row | SMILES | pest or weed control at 140 g/ha [%]
12 | Nc1c(Cl)c(C(=O)O)nc(-c2ccc(C(F)(F)F)nc2)c1Cl [Compound 33] | 85 to 94

Same assay, conditions: effective dose for growth reduction of 20 percent, probit analysis

Row | SMILES | GR20, HORSS [g ai/ha]
13 | Nc1c(Cl)c(C(=O)O)nc(-c2ccc(C(F)(F)F)nc2)c1Cl [Compound 33] | 1

The compounds below were run on SETVI (green foxtail) (assay: Post-Emergent Test III (Wheat and Barley)). Conditions: Setaria viridis, post-emergence, 504 h; 35 g ai/ha, postemergence; read-out: Visual Growth Reduction (%) 21 Days After Application, SETVI.
Format: in vivo, Setaria viridis
Description: as §1, §2, §3, §4

Row | SMILES | pest or weed control at 35 g/ha [%]
14 | Nc1c(Cl)c(C(=O)O)nc(-c2ccc(C(F)(F)F)nc2)c1Cl [Compound 33] | 45 to 59

Same assay, conditions: Setaria viridis, post-emergence, 504 h; 70 g ai/ha, postemergence; read-out: Visual Growth Reduction (%) 21 Days After Application, SETVI

Row | SMILES | pest or weed control at 70 g/ha [%]
15 | Nc1c(Cl)c(C(=O)O)nc(-c2ccc(C(F)(F)F)nc2)c1Cl [Compound 33] | 60 to 74

Same assay, conditions: Setaria viridis, post-emergence, 504 h; 140 g ai/ha, postemergence; read-out: Visual Growth Reduction (%) 21 Days After Application, SETVI

Row | SMILES | pest or weed control at 140 g/ha [%]
16 | Nc1c(Cl)c(C(=O)O)nc(-c2ccc(C(F)(F)F)nc2)c1Cl [Compound 33] | 60 to 74

Same assay, conditions: effective dose for growth reduction of 50 percent, probit analysis

Row | SMILES | GR50, SETVI [g ai/ha]
17 | Nc1c(Cl)c(C(=O)O)nc(-c2ccc(C(F)(F)F)nc2)c1Cl [Compound 33] | 48

Same assay, conditions: effective dose for growth reduction of 80 percent, probit analysis

Row | SMILES | GR80, SETVI [g ai/ha]
18 | Nc1c(Cl)c(C(=O)O)nc(-c2ccc(C(F)(F)F)nc2)c1Cl [Compound 33] | >140

Each compound was assayed on KCHSC (kochia) (assay: Post-Emergent Test III (Wheat and Barley)). Conditions: Bassia scoparia, post-emergence, 504 h; 35 g ai/ha, postemergence; read-out: Visual Growth Reduction (%) 21 Days After Application, KCHSC.
Format: in vivo, Kochia scoparia
Description: as §1, §2, §3, §4

Row | SMILES | pest or weed control at 35 g/ha [%]
19 | Nc1c(Cl)c(C(=O)O)nc(-c2ccc(C(F)(F)F)nc2)c1Cl [Compound 33] | 0 to 29

Same assay, conditions: Bassia scoparia, post-emergence, 504 h; 70 g ai/ha, postemergence; read-out: Visual Growth Reduction (%) 21 Days After Application, KCHSC

Row | SMILES | pest or weed control at 70 g/ha [%]
20 | Nc1c(Cl)c(C(=O)O)nc(-c2ccc(C(F)(F)F)nc2)c1Cl [Compound 33] | 45 to 59

Same assay, conditions: Bassia scoparia, post-emergence, 504 h; 140 g ai/ha, postemergence; read-out: Visual Growth Reduction (%) 21 Days After Application, KCHSC

Row | SMILES | pest or weed control at 140 g/ha [%]
21 | Nc1c(Cl)c(C(=O)O)nc(-c2ccc(C(F)(F)F)nc2)c1Cl [Compound 33] | 60 to 74

Same assay, conditions: effective dose for growth reduction of 50 percent, probit analysis

Row | SMILES | GR50, KCHSC [g ai/ha]
22 | Nc1c(Cl)c(C(=O)O)nc(-c2ccc(C(F)(F)F)nc2)c1Cl [Compound 33] | 95

Same assay, conditions: effective dose for growth reduction of 80 percent, probit analysis

Row | SMILES | GR80, KCHSC [g ai/ha]
23 | Nc1c(Cl)c(C(=O)O)nc(-c2ccc(C(F)(F)F)nc2)c1Cl [Compound 33] | >140

The compounds below were run on APESV (windgrass) (assay: Post-Emergent Test III (Wheat and Barley)). Conditions: Apera spica-venti, post-emergence, 504 h; 35 g ai/ha, postemergence; read-out: Visual Growth Reduction (%) 21 Days After Application, APESV.
Format: in vivo, Apera spica-venti
Description: as §1, §2, §3, §4

Row | SMILES | pest or weed control at 35 g/ha [%]
24 | Nc1c(Cl)c(C(=O)O)nc(-c2ccc(C(F)(F)F)nc2)c1Cl [Compound 33] | 0 to 29

Same assay, conditions: Apera spica-venti, post-emergence, 504 h; 70 g ai/ha, postemergence; read-out: Visual Growth Reduction (%) 21 Days After Application, APESV

Row | SMILES | pest or weed control at 70 g/ha [%]
25 | Nc1c(Cl)c(C(=O)O)nc(-c2ccc(C(F)(F)F)nc2)c1Cl [Compound 33] | 60 to 74

Same assay, conditions: Apera spica-venti, post-emergence, 504 h; 140 g ai/ha, postemergence; read-out: Visual Growth Reduction (%) 21 Days After Application, APESV

Row | SMILES | pest or weed control at 140 g/ha [%]
26 | Nc1c(Cl)c(C(=O)O)nc(-c2ccc(C(F)(F)F)nc2)c1Cl [Compound 33] | 60 to 74

Same assay, conditions: effective dose for growth reduction of 50 percent, probit analysis

Row | SMILES | GR50, APESV [g ai/ha]
27 | Nc1c(Cl)c(C(=O)O)nc(-c2ccc(C(F)(F)F)nc2)c1Cl [Compound 33] | 70

Same assay, conditions: effective dose for growth reduction of 80 percent, probit analysis

Row | SMILES | GR80, APESV [g ai/ha]
28 | Nc1c(Cl)c(C(=O)O)nc(-c2ccc(C(F)(F)F)nc2)c1Cl [Compound 33] | 134
